In patent US20110039763A1, “TARGETED ANTIMICROBIAL MOIETIES” (C3 JIAN, INC., priority 2009, published 2011):
“Also recorded” adds a separate entry of the source. Square brackets hold non-standard residues; d marks the D form. Ends that are not written are not given here. Aib = CC(C)(N)C(=O)O

Each substance was assayed on microorganisms (assay: Targeting peptide binding to target microorganisms (Tables 3, 10, 12)). Conditions: microorganism(s) the targeting peptide binds; binding in aqueous buffers varied with peptide solubility, preferably 1x PBS.
In the case of “PF-705 (GEEEGTVAD; Peptide with targeting and/or antimicrobial activity)”, the “Target(s)” value is reported as “S. mutans; also recorded: E. coli”.
For “PF-706 (LGYGAWIGCGLGLNGFHRID; Peptide with targeting and/or antimicrobial activity)”, the “Target(s)” value was “L. pneumophila”.
For “PF-707 (IDPESIVTTNNKQDNVDEQ; Peptide with targeting and/or antimicrobial activity)”, the “Target(s)” value was “S. mutans; also recorded: E. coli”.
For “PF-709 (NKKHSPMD; Peptide with targeting and/or antimicrobial activity)”, the “Target(s)” value was “S. mutans”.
For “PF-711 (KTAGPTGTIYKTN; Peptide with targeting and/or antimicrobial activity)”, the “Target(s)” value was “S. mutans”.
For “PF-712 (QIYRHVHKVQAKSANLRLY; Peptide with targeting and/or antimicrobial activity)”, the “Target(s)” value was “S. mutans; also recorded: E. coli”.
“PF-714 (FVVTQRMLRMYKK; Peptide with targeting and/or antimicrobial activity)” was tested, and the “Target(s)” value was “L. pneumophila”.
For “PF-716 (HGENHHHKSDEKDNDSSEKKD; Peptide with targeting and/or antimicrobial activity)”, the “Target(s)” value was “S. mutans”.
“PF-717 (PQSEVTFENIYAPKANGGGLYGI; Peptide with targeting and/or antimicrobial activity)” was tested, and the “Target(s)” value was “E. coli”.
With “PF-720 (SLDMGK; Peptide with targeting and/or antimicrobial activity)” the “Target(s)” value was “S. mutans”.
With “PF-724 (CYRFLTPKRPTRIS; Peptide with targeting and/or antimicrobial activity)” the “Target(s)” value was “L. pneumophila”.
For “PF-727 (AYARCRHDYPFTLGQMQTH; Peptide with targeting and/or antimicrobial activity)”, the “Target(s)” value was “S. mutans; also recorded: E. coli”.
With “PF-728 (AIGQEQDRREYYYYSGYPYYY; Peptide with targeting and/or antimicrobial activity)” the “Target(s)” value was “S. mutans; also recorded: E. coli”.
With “PF-731 (RHKLIRLPLSESVFCFLNNPKI; Peptide with targeting and/or antimicrobial activity)” the “Target(s)” value was “L. pneumophila”.
In the case of “PF-732 (DRPSQTTHHTLSSSRITGPS; Peptide with targeting and/or antimicrobial activity)”, the “Target(s)” value is reported as “E. coli”.
In the case of “PF-733 (VISRQMGSEAVLELFIIM; Peptide with targeting and/or antimicrobial activity)”, the “Target(s)” value is reported as “S. mutans; also recorded: E. coli”.
“PF-735 (YDPLFPNDKN; Peptide with targeting and/or antimicrobial activity)” was tested, and the “Target(s)” value was “S. mutans; also recorded: E. coli”.
In the case of “PF-750 (AESSPAKTTA; Peptide with targeting and/or antimicrobial activity)”, the “Target(s)” value is reported as “M. luteus; also recorded: C. jeikeium”.
In the case of “PF-751 (AESSPAQETT; Peptide with targeting and/or antimicrobial activity)”, the “Target(s)” value is reported as “S. epidermidis; also recorded: E. coli; also recorded: C. albicans; also recorded: C. jeikeium”.
With “PF-765 (YLYWEVEHKPIIAKRDAYYAQLRKQKEIEEGA; Peptide with targeting and/or antimicrobial activity)” the “Target(s)” value was “S. epidermidis and M. luteus and E. coli and MRSA and E. faecalis and C. jeikeium”.
With “PF-766 (DAYYAQLRKQKEIEEGA; Peptide with targeting and/or antimicrobial activity)” the “Target(s)” value was “S. epidermidis and M. luteus and C. albicans and MRSA and E. faecalis and C. jeikeium”.
With “PF-767 (DGKQGEPVALKPTDN; Peptide with targeting and/or antimicrobial activity)” the “Target(s)” value was “S. epidermidis and M. luteus and E. coli and MRSA and S. pneumoniae and E. faecalis and C. jeikeium”.
For “PF-768 (GFRGGKRGGARG; Peptide with targeting and/or antimicrobial activity)”, the “Target(s)” value was “S. epidermidis; also recorded: S. pneumoniae; also recorded: E. faecalis; also recorded: C. jeikeium”.
For “PF-772 (TKESSS; Peptide with targeting and/or antimicrobial activity)”, the “Target(s)” value was “S. epidermidis and C. albicans and MRSA and S. pneumoniae and C. jeikeium”.
For “PF-773 (TLKESK; Peptide with targeting and/or antimicrobial activity)”, the “Target(s)” value was “S. epidermidis; also recorded: C. albicans; also recorded: C. jeikeium”.
“PF-777 (PGADGKLAEASAAIARLVRS; Peptide with targeting and/or antimicrobial activity)” was tested, and the “Target(s)” value was “Mycobacteria spp”.
With “PF-778 (MNLILTAHGT; Peptide with targeting and/or antimicrobial activity)” the “Target(s)” value was “Mycobacteria spp”.
With “PF-779 (IYGDFFNFYLCDISLKVNGLQPGGPVRTVKLFGQPTGRCTPQ; Peptide with targeting and/or antimicrobial activity)” the “Target(s)” value was “Mycobacteria spp”.
In the case of “PF-780 (AVYDALVALAAAEHRAELATRDARAKDTYEKIGVHVVVAA; Peptide with targeting and/or antimicrobial activity)”, the “Target(s)” value is reported as “Mycobacteria spp”.
For “PF-781 (PLVVVNHRRAERSRG; Peptide with targeting and/or antimicrobial activity)”, the “Target(s)” value was “Mycobacteria spp”.
“PF-782 (TGPRRGIDLTSNRALSEVLDEGLELNSRK; Peptide with targeting and/or antimicrobial activity)” was tested, and the “Target(s)” value was “Mycobacteria spp”.
With “PF-783 (FTSEVRGVFTYRVNKAGLITNMRGYWNLDMMTFGNQE; Peptide with targeting and/or antimicrobial activity)” the “Target(s)” value was “Mycobacteria spp”.
In the case of “PF-784 (MAMTTVDNIVGLVIAVALMAFLFAALLFPEKF; Peptide with targeting and/or antimicrobial activity)”, the “Target(s)” value is reported as “Mycobacteria spp”.
For “PF-785 (MRPQHSPAGKAFVVKKITHEQS; Peptide with targeting and/or antimicrobial activity)”, the “Target(s)” value was “Mycobacteria spp”.
“PF-786 (LSERERRRLKRGII; Peptide with targeting and/or antimicrobial activity)” was tested, and the “Target(s)” value was “Mycobacteria spp”.
“PF-787 (MTERQRRALLKQHPEVVSWSDYLEKRKRRTGTAG; Peptide with targeting and/or antimicrobial activity)” was tested, and the “Target(s)” value was “Mycobacteria spp”.
With “PF-788 (GLITVFAGTARILQLRRAAKKTHAAALR; Peptide with targeting and/or antimicrobial activity)” the “Target(s)” value was “Mycobacteria spp”.
In the case of “PF-789 (PRGAQSGHG; Peptide with targeting and/or antimicrobial activity)”, the “Target(s)” value is reported as “Mycobacteria spp”.
“PF-790 (PAGPDHLDQRDHR; Peptide with targeting and/or antimicrobial activity)” was tested, and the “Target(s)” value was “Mycobacteria spp”.
For “PF-791 (IFLTTQNTDYSEHNAA; Peptide with targeting and/or antimicrobial activity)”, the “Target(s)” value was “S. mutans”.
“PF-792 (ALHASGIQAI; Peptide with targeting and/or antimicrobial activity)” was tested, and the “Target(s)” value was “S. mutans”.
With “PF-793 (YTQ[Aib]NNASAYAMLLTNKDTVP; ends and bridges not checked)” the “Target(s)” value was “S. mutans”.
“PF-794 (NLYFENQGN; Peptide with targeting and/or antimicrobial activity)” was tested, and the “Target(s)” value was “S. mutans”.
“PF-795 (ALHKSGIQVIADWVPDQIYN; Peptide with targeting and/or antimicrobial activity)” was tested, and the “Target(s)” value was “S. mutans”.
With “PF-796 (YTQSNIPTAYALMLSNKDSI; Peptide with targeting and/or antimicrobial activity)” the “Target(s)” value was “S. mutans”.
“PF-797 (WYYFDNNGYM; Peptide with targeting and/or antimicrobial activity)” was tested, and the “Target(s)” value was “S. mutans”.
For “PF-798 (ALHSKGIKVMADWVPDQMYA; Peptide with targeting and/or antimicrobial activity)”, the “Target(s)” value was “S. mutans”.
For “PF-799 (YTHYNTALSYALLLTNKSSVP; Peptide with targeting and/or antimicrobial activity)”, the “Target(s)” value was “S. mutans”.
“PF-800 (WYYFDNNGYM; Peptide with targeting and/or antimicrobial activity)” was tested, and the “Target(s)” value was “S. mutans”.
With “PF-C003 (FCSVDHDVITIAADHVKQGAEA; Peptide with targeting and/or antimicrobial activity)” the “Target(s)” value was “A. naeslundii; also recorded: P. gingivalis; also recorded: S. mutans”.
“PF-C008 (AQPRRTWLVNFGEVPSPGLTNDGMPDH; Peptide with targeting and/or antimicrobial activity)” was tested, and the “Target(s)” value was “A. naeslundii”.
“PF-C034 (HPMPITVRSRKPGPLTAPSEH; Peptide with targeting and/or antimicrobial activity)” was tested, and the “Target(s)” value was “S. mutans; also recorded: E. coli”.
For “PF-C045 (FREGMGWPLSNEGSPTAPLPKHRNQV; Peptide with targeting and/or antimicrobial activity)”, the “Target(s)” value was “A. naeslundii; also recorded: T. denticola”.
With “PF-C050 (QGLARPVLRRIPL; Peptide with targeting and/or antimicrobial activity)” the “Target(s)” value was “A. naeslundii; also recorded: S. mutans”.
In the case of “PF-C063 (SHFRKGD; Peptide with targeting and/or antimicrobial activity)”, the “Target(s)” value is reported as “A. naeslundii; also recorded: F. nucleatum; also recorded: S. mutans”.
In the case of “PF-C068 (LNLFASI; Peptide with targeting and/or antimicrobial activity)”, the “Target(s)” value is reported as “A. naeslundii; also recorded: F. nucleatum; also recorded: S. mutans”.
In the case of “PF-C080 (INIPGLF; Peptide with targeting and/or antimicrobial activity)”, the “Target(s)” value is reported as “A. naeslundii; also recorded: F. nucleatum; also recorded: S. mutans”.
In the case of “PF-C093 (EKLGTMV; Peptide with targeting and/or antimicrobial activity)”, the “Target(s)” value is reported as “A. naeslundii; also recorded: F. nucleatum; also recorded: S. mutans”.
